Measurements as given in patent publication US10329249B1, “Sulindac derivatives” (KING SAUD UNIVERSITY, priority 2018, dated 2019).

What was measured:
[1] = DPPH free radical scavenging (antioxidant activity); conditions: 100 μg/mL compound in 3 mL 0.004% DPPH, 520 nm after 30 min; mean of three replicates ±SD
Description: The antioxidant activity was measured based on the scavenging activity of the stable DPPH free radical. 100 μg/mL of the twenty-five sulindac derivative compounds were added to 3 mL 0.004% DPPH solution. Methanol was added to 3 mL 0.004% DPPH solution for the control sample. Absorbance was determined at 520 nm after 30 min. Butylated hydroxytoluene (BHT) was used as a reference drug. The percent inhibition was calculated by the equation:
[formula] where At is the absorbance of the compound and A0 is the absorbance of the control.

[2] = system: acute nociception (tail flick); test: Analgesic study by tail flick method; type: in vivo, mice; conditions: Sulindac 100 mg/kg oral; for % Inhibition 30 min / Reaction Time 30 min / % Inhibition 60 min / Reaction Time 60 min / % Inhibition 120 min / Reaction Time 120 min: Compound 8 150 mg/kg; for Reaction Time 30 min / Reaction Time 60 min / Reaction Time 120 min / Reaction Time, Pre-drug: mean ±SEM; for Reaction Time, Pre-drug: pre-drug baseline, groups Compound 8 150 mg/kg
Description: (§1) All animal experiments used healthy male albino rats (200 g-220 g) and mice. The animals were kept in standard plastic animal cages in groups of six animals each with a 12 hour light and dark cycle. The animals were acclimatized to laboratory conditions for a week prior to the experiments.
In an analgesic study by tail flick method, acute nociception was assessed using a tail flick apparatus (Tail Flick model DS 20 Sorrel Apelex, France). Briefly, each animal was placed in a restrainer 2 min. before treatment and baseline reaction time was measured by focusing an intensity controlled beam of light on the distal one-third portion of the animal's tail. […] A 10 sec cut off time was used in order to prevent tissue damage.

[3] = system: acetic acid induced writhing; test: Analgesic activity by acetic acid induced writhing; type: in vivo, mice; conditions: Compound 8 150 mg/kg, Sulindac 100 mg/kg; for % Inhibition (writhing): versus acetic acid group; for Movements (writhing): counted for 20 minutes after i.p. acetic acid, mean ±SEM
Description: as §1
In an analgesic activity by writhing study, writhing was induced in mice by intraperitoneal administration of 0.1 mL of 1% acetic acid. The number of writhing movements was counted for 20 minutes. The writhing test was performed after the administration of the vehicle or sulindac derivative compound.

[4] = system: non-protein sulfhydryls (NP-SH); test: Non-protein sulfhydryls in stomach tissue; type: in vivo, rats; conditions: Sulindac 100, Compound 8 150, mean ±SEM
Description: […] non-protein sulfhydryls (NP-SH) were measured by homogenizing rat stomach tissues in ice cold 0.02 mmol/L ethylenediaminetetraacetic acid (EDTA). Aliquots of 5 mL of the homogenates were mixed in 15 mL test tube with 4 mL of distilled water and 1 mL of 50% trichloroacetic acid (TCA). The test tubes were shaken intermittently for 10 min. and centrifuged at 3000 rpm for 10 min. A total of 2 mL supernatant was mixed with 4 mL of […] tris buffer (pH 8.9). A total of 0.1 mL of 5,5-dithiobis(2-nitrobenzoic acid) ([…]) was added, and the sample was shaken. The absorbance was measured within 5 min. of addition of DTNB at 412 nm and compared to a reagent blank.

[5] = LD50 by the Karber method; type: in vivo; conditions: 24 hours observation
Description: In a study of the LD50 of sulindac derivative Compound 8, the LD50 (lethal dose 50%) was calculated for compound 8 by the Karber method. For determination of LD50, an observation was made for 24 hours, and symptoms of toxicity and rate of mortality were noted. Expired animals were counted at the end of the study period for the calculation of LD50 according to: LD50=LD100−Σ(a×b)/n, where n is the total number of animals in a group, a is the difference between two successive doses of administered extract/substance, b is the average number of dead animals in two successive doses, and LD100 is the lethal dose causing 100% death of all test animals.

| SMILES | Scavenging Effect [1] | % Inhibition 30 min [2] | Reaction Time 30 min [2] | % Inhibition 60 min [2] | Reaction Time 60 min [2] | % Inhibition 120 min [2] | Reaction Time 120 min [2] | Reaction Time, Pre-drug [2] | % Inhibition (writhing) [3] | Movements (writhing) [3] | NP-SH ([4]; drug alone, no ethanol) | NP-SH ([4]; with 80% Ethanol 1 mL) | # Dead ([5]; dose 100 mg/kg) | # Dead ([5]; dose 200 mg/kg) | # Dead ([5]; dose 400 mg/kg) | # Dead ([5]; dose 800 mg/kg) | # Dead ([5]; dose 1600 mg/kg) | # Dead ([5]; dose 2000 mg/kg) | LD50 at 24 h ([5]; in vivo, Karber method, LD50=LD100−Σ(a×b)/n) |
| --- | --- | --- | --- | --- | --- | --- | --- | --- | --- | --- | --- | --- | --- | --- | --- | --- | --- | --- | --- |
| CC1=C(CC(=O)N/N=C\c2ccc(N(C)C)cc2)c2cc(F)ccc2/C1=C\c1ccc([S+](C)[O-])cc1 (stereo not drawn) [Compound 8] | 85.10 ± 6.80% | 3.33% | 4.83 ± 0.30 s | 46.66% | 7.33 ± 0.42 s | 63.33% | 7.16 ± 0.30 s | 5.00 ± 0.36 s | 56.86% | 14.66 ± 0.95 | 7.52 ± 0.31 nmol/g | 6.62 ± 0.26 nmol/g | 0 | 0 | 1 | 3 | 5 | 9 | 1310 mg/kg |
| CC1=C(CC(=O)O)c2cc(F)ccc2/C1=C\c1ccc([S+](C)[O-])cc1 (stereo not drawn) [Sulindac] | – | 13.79% | 5.50 ± 0.34 s | 82.75% | 8.83 ± 0.79 s | 127.58% | 11.00 ± 0.57 s | 4.83 ± 0.40 s | 74.01% | 8.83 ± 0.70 | 7.00 ± 0.032 nmol/g | 5.08 ± 0.28 nmol/g | – | – | – | – | – | – | – |
